Data: article PMC6199309, “A therapeutic approach to pantothenate kinase associated neurodegeneration” (Nature Communications, 2018)

Key:
[1] = target: T1, ULK2 (Homo sapiens, UniProt Q8IYT8); assay: KINOMEscan; format: binding; conditions: read-out: %Ctrl @ 10000nM
T1 construct: DNA label for qPCR (T7 phage fusion or DNA tag); purchased DiscoverX scanMAX; host or cells: E. coli BL21-derived (T7 phage) or HEK-293

[2] = target: T2, RPS6KA4(Kin.Dom.1-N-terminal) (Homo sapiens, UniProt O75676); assay: KINOMEscan; format: binding; conditions: read-out: %Ctrl @ 10000nM
T2 construct: RPS6KA4(Kin.Dom.1-N-terminal); purchased DiscoverX KINOMEscan

[3] = target: T3, AKT3 (Homo sapiens, UniProt Q9Y243); assay: KINOMEscan; format: binding; conditions: read-out: %Ctrl @ 10000nM
T3 construct: purchased DiscoverX KINOMEscan

[4] = target: T4, PRKCH (Homo sapiens, UniProt P24723); assay: KINOMEscan; format: binding; conditions: read-out: %Ctrl @ 10000nM
T4 construct: purchased DiscoverX KINOMEscan

[5] = target: T5, MEK5 (Homo sapiens, UniProt Q13163); assay: KINOMEscan; format: binding; conditions: read-out: %Ctrl @ 10000nM
T5 construct: purchased DiscoverX KINOMEscan

[6] = target: T6, WNK4 (Homo sapiens, UniProt Q96J92); assay: KINOMEscan; format: binding; conditions: read-out: %Ctrl @ 10000nM
T6 construct: DNA label for qPCR (T7 phage fusion or DNA tag); purchased DiscoverX scanMAX; host or cells: E. coli BL21-derived (T7 phage) or HEK-293

[7] = Plasma stability; format: in vitro ADME; conditions: human, read-out: Plasma Stability T1/2
[8] = target: T7, SGK (Homo sapiens, UniProt O00141); assay: KINOMEscan; format: binding; conditions: read-out: %Ctrl @ 10000nM
T7 construct: purchased DiscoverX KINOMEscan

[9] = target: T8, MAP3K15 (Homo sapiens, UniProt Q6ZN16); assay: KINOMEscan; format: binding; conditions: read-out: %Ctrl @ 10000nM
T8 construct: purchased DiscoverX KINOMEscan

[10] = target: T9, NEK6 (Homo sapiens, UniProt Q9HC98); assay: KINOMEscan; format: binding; conditions: read-out: %Ctrl @ 10000nM
T9 construct: purchased DiscoverX KINOMEscan

[11] = target: T10, PRKCD (Homo sapiens, UniProt Q05655); assay: KINOMEscan; format: binding; conditions: read-out: %Ctrl @ 10000nM
T10 construct: purchased DiscoverX KINOMEscan

[12] = target: T11, GSK3A (Homo sapiens, UniProt P49840); assay: KINOMEscan; format: binding; conditions: read-out: %Ctrl @ 10000nM
T11 construct: purchased DiscoverX KINOMEscan
T11 sequence (P49840 whole entry): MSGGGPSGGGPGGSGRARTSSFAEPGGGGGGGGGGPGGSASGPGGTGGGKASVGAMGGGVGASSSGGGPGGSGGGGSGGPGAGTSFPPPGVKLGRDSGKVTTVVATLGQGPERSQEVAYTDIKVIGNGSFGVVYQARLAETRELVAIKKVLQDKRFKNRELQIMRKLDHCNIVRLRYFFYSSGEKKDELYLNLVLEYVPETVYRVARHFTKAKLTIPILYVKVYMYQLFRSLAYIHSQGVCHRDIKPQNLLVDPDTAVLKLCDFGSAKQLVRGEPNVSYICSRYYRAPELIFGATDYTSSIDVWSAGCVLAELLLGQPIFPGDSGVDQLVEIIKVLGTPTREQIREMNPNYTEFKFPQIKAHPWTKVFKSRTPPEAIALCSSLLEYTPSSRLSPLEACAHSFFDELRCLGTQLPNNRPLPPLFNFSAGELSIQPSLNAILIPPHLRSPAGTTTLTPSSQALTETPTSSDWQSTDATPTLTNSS

[13] = target: T12, TAOK2 (Homo sapiens, UniProt Q9UL54); assay: KINOMEscan; format: binding; conditions: read-out: %Ctrl @ 10000nM
T12 construct: purchased DiscoverX KINOMEscan

[14] = target: T13, SRPK3 (Homo sapiens, UniProt Q9UPE1); assay: KINOMEscan; format: binding; conditions: read-out: %Ctrl @ 10000nM
T13 construct: purchased DiscoverX KINOMEscan

[15] = target: T14, VPS34 (Homo sapiens, UniProt Q8NEB9); assay: KINOMEscan; format: binding; conditions: read-out: %Ctrl @ 10000nM
T14 construct: DNA label for qPCR (T7 phage fusion or DNA tag); purchased DiscoverX scanMAX; host or cells: E. coli BL21-derived (T7 phage) or HEK-293
T14 sequence (Q8NEB9 whole entry, the tested form may be a part): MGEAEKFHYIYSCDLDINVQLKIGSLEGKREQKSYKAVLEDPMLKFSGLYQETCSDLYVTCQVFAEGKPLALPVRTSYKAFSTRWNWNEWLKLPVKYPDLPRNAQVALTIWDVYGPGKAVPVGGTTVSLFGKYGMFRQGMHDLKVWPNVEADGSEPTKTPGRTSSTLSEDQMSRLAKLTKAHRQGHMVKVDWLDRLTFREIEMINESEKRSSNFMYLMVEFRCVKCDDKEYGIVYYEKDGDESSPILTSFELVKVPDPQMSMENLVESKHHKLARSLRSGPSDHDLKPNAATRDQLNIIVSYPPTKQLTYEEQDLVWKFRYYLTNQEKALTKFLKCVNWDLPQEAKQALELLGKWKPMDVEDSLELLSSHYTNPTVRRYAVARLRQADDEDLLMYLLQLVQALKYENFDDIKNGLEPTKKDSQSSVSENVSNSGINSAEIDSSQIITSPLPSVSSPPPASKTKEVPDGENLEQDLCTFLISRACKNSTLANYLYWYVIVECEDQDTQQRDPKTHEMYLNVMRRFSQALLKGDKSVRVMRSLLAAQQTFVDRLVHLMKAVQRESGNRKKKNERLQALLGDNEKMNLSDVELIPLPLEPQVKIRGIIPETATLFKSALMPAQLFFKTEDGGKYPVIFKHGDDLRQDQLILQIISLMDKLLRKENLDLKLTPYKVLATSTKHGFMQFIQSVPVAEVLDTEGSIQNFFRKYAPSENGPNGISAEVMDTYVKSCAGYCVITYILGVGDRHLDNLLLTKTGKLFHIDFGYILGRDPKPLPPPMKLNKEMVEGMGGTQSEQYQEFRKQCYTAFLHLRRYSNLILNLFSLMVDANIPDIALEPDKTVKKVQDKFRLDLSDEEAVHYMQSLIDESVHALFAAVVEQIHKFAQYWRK

[16] = target: T15, PIK3CA(E545A) (Homo sapiens, UniProt P42336, E545A); assay: KINOMEscan; format: binding; conditions: read-out: %Ctrl @ 10000nM
T15 construct: purchased DiscoverX KINOMEscan

[17] = target: T16, KIT(V559D) (Homo sapiens, UniProt P10721, V559D); assay: KINOMEscan; format: binding; conditions: read-out: %Ctrl @ 10000nM
T16 construct: purchased DiscoverX KINOMEscan
T16 sequence (P10721 26-976 V559D): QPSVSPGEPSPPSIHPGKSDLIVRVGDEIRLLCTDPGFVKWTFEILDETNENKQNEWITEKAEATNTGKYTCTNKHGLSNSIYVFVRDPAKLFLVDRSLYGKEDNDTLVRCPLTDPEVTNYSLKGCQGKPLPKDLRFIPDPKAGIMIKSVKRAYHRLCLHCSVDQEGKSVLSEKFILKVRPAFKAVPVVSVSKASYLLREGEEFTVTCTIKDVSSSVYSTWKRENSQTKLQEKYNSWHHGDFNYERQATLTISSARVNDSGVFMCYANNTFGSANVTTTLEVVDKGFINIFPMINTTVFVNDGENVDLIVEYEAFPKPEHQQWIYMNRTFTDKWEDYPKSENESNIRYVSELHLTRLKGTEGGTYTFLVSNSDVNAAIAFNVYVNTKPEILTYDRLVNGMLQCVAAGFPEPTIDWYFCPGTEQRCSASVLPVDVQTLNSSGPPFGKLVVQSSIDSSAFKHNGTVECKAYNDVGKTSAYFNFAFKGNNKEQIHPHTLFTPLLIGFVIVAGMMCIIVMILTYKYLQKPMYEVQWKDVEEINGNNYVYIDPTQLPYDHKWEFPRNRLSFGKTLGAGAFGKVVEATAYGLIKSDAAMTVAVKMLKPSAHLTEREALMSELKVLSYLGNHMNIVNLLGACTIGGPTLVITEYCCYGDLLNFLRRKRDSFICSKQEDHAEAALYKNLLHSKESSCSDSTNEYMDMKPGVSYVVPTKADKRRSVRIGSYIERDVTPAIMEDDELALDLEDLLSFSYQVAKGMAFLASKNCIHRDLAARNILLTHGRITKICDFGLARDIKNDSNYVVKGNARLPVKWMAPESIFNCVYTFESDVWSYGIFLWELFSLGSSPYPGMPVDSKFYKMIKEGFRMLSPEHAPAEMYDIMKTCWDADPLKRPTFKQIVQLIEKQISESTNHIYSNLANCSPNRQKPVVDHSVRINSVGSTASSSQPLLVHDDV

[18] = target: T17, DMPK (Homo sapiens, UniProt Q09013); assay: KINOMEscan; format: binding; conditions: read-out: %Ctrl @ 10000nM
T17 construct: purchased DiscoverX KINOMEscan

[19] = target: T18, HIPK4 (Homo sapiens, UniProt Q8NE63); assay: KINOMEscan; format: binding; conditions: read-out: %Ctrl @ 10000nM
T18 construct: purchased DiscoverX KINOMEscan

[20] = target: T19, CDC2L5 (Homo sapiens, UniProt Q14004); assay: KINOMEscan; format: binding; conditions: read-out: %Ctrl @ 10000nM
T19 construct: purchased DiscoverX KINOMEscan

[21] = target: T20, EPHB4 (Homo sapiens, UniProt P54760); assay: KINOMEscan; format: binding; conditions: read-out: %Ctrl @ 10000nM
T20 construct: purchased DiscoverX KINOMEscan

[22] = target: T21, KIT (Homo sapiens, UniProt P10721); assay: KINOMEscan; format: binding; conditions: read-out: %Ctrl @ 10000nM
T21 construct: purchased DiscoverX KINOMEscan
T21 sequence (P10721 26-976): as the sequence (P10721 26-976 V559D) above, with D534V counted along it

[23] = target: T22, MAP3K3 (Homo sapiens, UniProt Q99759); assay: KINOMEscan; format: binding; conditions: read-out: %Ctrl @ 10000nM
T22 construct: purchased DiscoverX KINOMEscan

[24] = target: T23, MYLK (Homo sapiens, UniProt Q15746); assay: KINOMEscan; format: binding; conditions: read-out: %Ctrl @ 10000nM
T23 construct: purchased DiscoverX KINOMEscan

[25] = target: T24, RSK3(Kin.Dom.1-N-terminal) (Homo sapiens, UniProt Q15349); assay: KINOMEscan; format: binding; conditions: read-out: %Ctrl @ 10000nM
T24 construct: RSK3(Kin.Dom.1-N-terminal); purchased DiscoverX KINOMEscan

[26] = target: T25, EGFR(L747-E749del, A750P) (Homo sapiens, UniProt P00533, A750P/DEL747-749); assay: KINOMEscan; format: binding; conditions: read-out: %Ctrl @ 10000nM
T25 construct: purchased DiscoverX KINOMEscan
T25 sequence (P00533 with tags, fused parts or gaps DEL747-749/A750P limits assumed): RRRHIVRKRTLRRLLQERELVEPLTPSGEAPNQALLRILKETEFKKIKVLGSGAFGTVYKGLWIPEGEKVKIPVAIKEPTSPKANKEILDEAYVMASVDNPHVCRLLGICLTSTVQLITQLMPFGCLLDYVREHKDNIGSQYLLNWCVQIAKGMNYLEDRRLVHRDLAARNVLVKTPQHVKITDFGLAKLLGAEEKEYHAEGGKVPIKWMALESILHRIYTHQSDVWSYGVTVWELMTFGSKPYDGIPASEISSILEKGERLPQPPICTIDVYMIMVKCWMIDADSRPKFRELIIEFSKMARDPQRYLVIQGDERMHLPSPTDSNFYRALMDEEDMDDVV

[27] = target: T26, EGFR(L747-S752del, P753S) (Homo sapiens, UniProt P00533, DEL747-752/P753S); assay: KINOMEscan; format: binding; conditions: read-out: %Ctrl @ 10000nM
T26 construct: purchased DiscoverX KINOMEscan

[28] = target: T27, TESK1 (Homo sapiens, UniProt Q15569); assay: KINOMEscan; format: binding; conditions: read-out: %Ctrl @ 10000nM
T27 construct: purchased DiscoverX KINOMEscan

[29] = target: T28, MAST1 (Homo sapiens, UniProt Q9Y2H9); assay: KINOMEscan; format: binding; conditions: read-out: %Ctrl @ 10000nM
T28 construct: purchased DiscoverX KINOMEscan

[30] = target: T29, RIOK1 (Homo sapiens, UniProt Q9BRS2); assay: KINOMEscan; format: binding; conditions: read-out: %Ctrl @ 10000nM
T29 construct: purchased DiscoverX KINOMEscan

[31] = target: T30, BRAF (Homo sapiens, UniProt P15056); assay: KINOMEscan; format: binding; conditions: read-out: %Ctrl @ 10000nM
T30 construct: purchased DiscoverX KINOMEscan

[32] = target: T31, SNARK (Homo sapiens, UniProt Q9H093); assay: KINOMEscan; format: binding; conditions: read-out: %Ctrl @ 10000nM
T31 construct: purchased DiscoverX KINOMEscan

[33] = target: T32, JNK2 (Homo sapiens, UniProt P45984); assay: KINOMEscan; format: binding; conditions: read-out: %Ctrl @ 10000nM
T32 construct: purchased DiscoverX KINOMEscan

[34] = target: T33, PIM1 (Homo sapiens, UniProt P11309); assay: KINOMEscan; format: binding; conditions: read-out: %Ctrl @ 10000nM
T33 construct: purchased DiscoverX KINOMEscan

[35] = target: T34, CDK3 (Homo sapiens, UniProt Q00526); assay: KINOMEscan; format: binding; conditions: read-out: %Ctrl @ 10000nM
T34 construct: purchased DiscoverX KINOMEscan

[36] = target: T35, PRKCQ (Homo sapiens, UniProt Q04759); assay: KINOMEscan; format: binding; conditions: read-out: %Ctrl @ 10000nM
T35 construct: purchased DiscoverX KINOMEscan

[37] = target: T36, PFPK5(P.falciparum) (Plasmodium falciparum, UniProt P61075); assay: KINOMEscan; format: binding; conditions: read-out: %Ctrl @ 10000nM
T36 construct: purchased DiscoverX KINOMEscan

[38] = target: T37, HIPK2 (Homo sapiens, UniProt Q9H2X6); assay: KINOMEscan; format: binding; conditions: read-out: %Ctrl @ 10000nM
T37 construct: purchased DiscoverX KINOMEscan
T37 sequence (Q9H2X6 whole entry): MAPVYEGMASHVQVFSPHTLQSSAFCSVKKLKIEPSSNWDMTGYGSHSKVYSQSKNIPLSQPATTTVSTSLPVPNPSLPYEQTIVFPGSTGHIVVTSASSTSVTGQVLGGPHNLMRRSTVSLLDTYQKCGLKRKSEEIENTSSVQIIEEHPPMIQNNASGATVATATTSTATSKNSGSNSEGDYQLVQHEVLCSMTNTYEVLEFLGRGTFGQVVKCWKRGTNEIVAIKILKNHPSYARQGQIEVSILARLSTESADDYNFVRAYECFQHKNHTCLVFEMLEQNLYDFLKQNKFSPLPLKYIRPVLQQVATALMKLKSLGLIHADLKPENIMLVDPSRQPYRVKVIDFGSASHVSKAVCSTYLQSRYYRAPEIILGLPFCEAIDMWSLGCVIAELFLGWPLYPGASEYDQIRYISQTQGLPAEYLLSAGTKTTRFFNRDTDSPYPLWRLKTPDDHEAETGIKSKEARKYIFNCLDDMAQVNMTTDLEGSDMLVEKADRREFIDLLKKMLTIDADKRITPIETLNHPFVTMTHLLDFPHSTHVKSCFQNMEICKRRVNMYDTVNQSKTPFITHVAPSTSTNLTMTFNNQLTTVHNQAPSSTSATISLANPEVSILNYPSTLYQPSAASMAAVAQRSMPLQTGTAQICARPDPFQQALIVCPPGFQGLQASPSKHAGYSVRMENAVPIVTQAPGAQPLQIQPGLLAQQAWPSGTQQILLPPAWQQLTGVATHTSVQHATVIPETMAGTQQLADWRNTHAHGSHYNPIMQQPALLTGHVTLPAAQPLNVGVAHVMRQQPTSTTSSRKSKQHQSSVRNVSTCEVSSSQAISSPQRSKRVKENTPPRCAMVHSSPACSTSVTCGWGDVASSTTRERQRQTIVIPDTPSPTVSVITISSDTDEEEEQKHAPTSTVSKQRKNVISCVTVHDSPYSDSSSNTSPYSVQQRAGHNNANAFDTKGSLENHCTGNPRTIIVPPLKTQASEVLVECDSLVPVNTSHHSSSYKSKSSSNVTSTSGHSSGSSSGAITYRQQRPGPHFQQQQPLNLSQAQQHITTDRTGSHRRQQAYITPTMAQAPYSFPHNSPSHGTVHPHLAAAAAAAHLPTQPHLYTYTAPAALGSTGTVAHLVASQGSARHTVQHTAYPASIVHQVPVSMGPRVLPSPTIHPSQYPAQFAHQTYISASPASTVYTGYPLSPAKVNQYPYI

[39] = target: T38, IRAK1 (Homo sapiens, UniProt P51617); assay: KINOMEscan; format: binding; conditions: read-out: %Ctrl @ 10000nM
T38 construct: purchased DiscoverX KINOMEscan

[40] = target: T39, AXL (Homo sapiens, UniProt P30530); assay: KINOMEscan; format: binding; conditions: read-out: %Ctrl @ 10000nM
T39 construct: purchased DiscoverX KINOMEscan

[41] = Protein binding; conditions: rat

T1 sequence (Q8IYT8 whole entry, the tested form may be a part): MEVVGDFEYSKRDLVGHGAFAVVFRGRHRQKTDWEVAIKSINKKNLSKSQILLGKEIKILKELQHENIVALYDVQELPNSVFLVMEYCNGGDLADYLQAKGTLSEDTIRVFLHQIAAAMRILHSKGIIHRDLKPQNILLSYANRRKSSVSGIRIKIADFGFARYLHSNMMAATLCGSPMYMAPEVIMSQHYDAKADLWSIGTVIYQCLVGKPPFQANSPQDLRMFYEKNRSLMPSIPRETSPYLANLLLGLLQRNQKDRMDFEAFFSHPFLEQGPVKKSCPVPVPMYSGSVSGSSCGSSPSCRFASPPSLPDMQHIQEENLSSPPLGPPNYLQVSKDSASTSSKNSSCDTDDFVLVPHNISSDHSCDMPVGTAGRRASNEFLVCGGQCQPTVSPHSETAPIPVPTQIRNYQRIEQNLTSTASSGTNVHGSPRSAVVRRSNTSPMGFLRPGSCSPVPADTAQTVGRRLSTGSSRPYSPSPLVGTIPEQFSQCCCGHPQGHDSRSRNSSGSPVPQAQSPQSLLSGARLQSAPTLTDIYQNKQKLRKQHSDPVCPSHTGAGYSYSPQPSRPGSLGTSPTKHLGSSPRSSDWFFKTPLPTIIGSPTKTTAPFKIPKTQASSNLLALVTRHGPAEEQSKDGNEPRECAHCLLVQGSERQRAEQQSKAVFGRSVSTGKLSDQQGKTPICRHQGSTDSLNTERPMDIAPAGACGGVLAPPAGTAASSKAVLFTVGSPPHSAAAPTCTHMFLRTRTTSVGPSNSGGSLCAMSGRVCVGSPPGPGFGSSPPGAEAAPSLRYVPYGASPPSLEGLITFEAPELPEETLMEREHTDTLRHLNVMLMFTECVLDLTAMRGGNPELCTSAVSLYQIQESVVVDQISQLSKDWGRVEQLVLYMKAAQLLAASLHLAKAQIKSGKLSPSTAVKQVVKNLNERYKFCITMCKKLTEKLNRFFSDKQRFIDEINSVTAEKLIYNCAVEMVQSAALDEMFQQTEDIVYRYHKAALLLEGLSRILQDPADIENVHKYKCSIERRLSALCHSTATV

CC(C)c1ccc(CC(=O)N2CCN(c3ccc(C#N)nn3)CC2)cc1 [PZ-2891, 6-(4-(2-(4-isopropylphenyl)acetyl)piperazin-1-yl)pyridazine-3-carbonitrile]
remaining binding at 10 µM [1]: 86% | remaining binding at 10 µM [2]: 96% | remaining binding at 10 µM [3]: 82% | remaining binding at 10 µM [4]: 92% | remaining binding at 10 µM [5]: 69% | remaining binding at 10 µM [6]: 69% | half-life [7]: > 3000 min | remaining binding at 10 µM [8]: 61% | remaining binding at 10 µM [9]: 92% | remaining binding at 10 µM [10]: 91% | remaining binding at 10 µM [11]: 89% | remaining binding at 10 µM [12]: 83% | remaining binding at 10 µM [13]: 99% | remaining binding at 10 µM [14]: 67% | remaining binding at 10 µM [15]: 80% | remaining binding at 10 µM [16]: 64% | remaining binding at 10 µM [17]: 81% | remaining binding at 10 µM [18]: 89% | remaining binding at 10 µM [19]: 94% | remaining binding at 10 µM [20]: 81% | remaining binding at 10 µM [21]: 97% | remaining binding at 10 µM [22]: 75% | remaining binding at 10 µM [23]: 65% | remaining binding at 10 µM [24]: 75% | remaining binding at 10 µM [25]: 72% | remaining binding at 10 µM [26]: 72% | remaining binding at 10 µM [27]: 100% | remaining binding at 10 µM [28]: 86% | remaining binding at 10 µM [29]: 61% | remaining binding at 10 µM [30]: 100% | remaining binding at 10 µM [31]: 100% | remaining binding at 10 µM [32]: 69% | remaining binding at 10 µM [33]: 79% | remaining binding at 10 µM [34]: 93% | remaining binding at 10 µM [35]: 97% | remaining binding at 10 µM [36]: 100% | remaining binding at 10 µM [37]: 99% | remaining binding at 10 µM [38]: 100% | remaining binding at 10 µM [39]: 91% | remaining binding at 10 µM [40]: 73% | fraction unbound [41]: 0.09
